Assay results from patent US11400093B2, “Deuterated elagolix-like compositions and methods” (Lupin Inc., priority 2019, dated 2022).

Legend:
Format in all cases: in vitro ADME
[1] = molecular target: T1, cDNA-expressed CYP3A5 (Homo sapiens, UniProt P20815); assay: Metabolism by cDNA-expressed CYP3A5 (parent remaining); details: 1 μM, 120 min
T1 construct: purchased
Experimental: (§1) A study was conducted to determine the effect of deuteration on the metabolism of elagolix by human cytochrome P450 (CYP) enzymes. The metabolism of 4-[[(1R)-2-[5-(2-fluoro-3-methoxyphenyl)-3-[[2-fluoro-6(trifluoromethyl)phenyl]methyl]-3,6-dihydro-4-methyl-2,6-dioxo-1(2H)-pyrimidinyl]-1-phenylethyl]amino] butanoic acid-d3 (elagolix-d3) sodium salt and 4-[[(1R)-2-[5-(2-fluoro-3-methoxyphenyl)-3-[[2-fluoro-6(trifluoromethyl)phenyl] methyl]-3,6-dihydro-4-methyl-2,6-dioxo-1(2H)-pyrimidinyl]-1-phenylethyl]amino] butanoic acid-d6 (elagolix-d6) sodium salt by cDNA-expressed CYP enzymes were investigated in vitro and compared to results obtained with undeuterated elagolix to determine which human cytochrome P450 (CYP) enzymes are involved in the metabolism of elagolix, elagolix-d3, and elagolix-d6.
(§2) Commercially available cDNA-expressed human CYP enzymes were used for this study. […]
(§3) LC-MS/MS methods for elagolix, elagolix-d3, and elagolix-d6 were developed. The fraction of parent compound remaining compared to 0 min was determined based on peak area ratio (analyte/internal standard). […]

[2] = molecular target: T2, cDNA-expressed CYP2D6 (Homo sapiens, UniProt P10635); assay: Metabolism by cDNA-expressed CYP2D6 (parent remaining); details: 1 μM, 120 min
T2 construct: purchased
T2 sequence (P10635 whole entry): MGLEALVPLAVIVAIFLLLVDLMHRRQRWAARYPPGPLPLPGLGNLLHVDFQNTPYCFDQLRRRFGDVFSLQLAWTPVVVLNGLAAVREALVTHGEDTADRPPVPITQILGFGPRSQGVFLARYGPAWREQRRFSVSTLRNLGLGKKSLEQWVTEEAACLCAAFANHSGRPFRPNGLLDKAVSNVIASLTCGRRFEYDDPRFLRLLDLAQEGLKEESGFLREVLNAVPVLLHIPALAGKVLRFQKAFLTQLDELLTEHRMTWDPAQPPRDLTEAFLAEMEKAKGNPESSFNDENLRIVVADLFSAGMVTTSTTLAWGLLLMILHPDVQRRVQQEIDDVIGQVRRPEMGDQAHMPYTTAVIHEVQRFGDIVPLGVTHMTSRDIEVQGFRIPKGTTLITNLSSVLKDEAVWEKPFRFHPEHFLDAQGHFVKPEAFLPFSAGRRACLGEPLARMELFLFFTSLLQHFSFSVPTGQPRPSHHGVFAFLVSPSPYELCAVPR
Experimental: as §1, §2, §3

[3] = tested on: cDNA-expressed CYP1A2, CYP2A6, CYP2B6, CYP2C8, CYP2C9, CYP2C19, CYP2D6, CYP2E1, CYP3A4, and CYP3A5; assay: Metabolism by cDNA-expressed human CYP enzymes, all isoforms (parent remaining); details: for average percent of parent compound remaining for all isoforms and concentrations: 1.0 μM and 10 μM, 120 minutes incubation, all ten CYP isoforms
Experimental: as §1
Commercially available cDNA-expressed human CYP enzymes were used for this study.
A 600 μL reaction mixture containing enzyme protein, NADPH generating system (1.3 mM NADP+, 3.3 mM glucose-6-phosphate, 0.4 U/mL glucose-6-phosphate dehydrogenase, 3.3 mM magnesium chloride) and each test article (elagolix, elagolix-d3, elagolix-d6) at two concentrations (e.g. 1 μM and 10 μM) in 100 mM potassium phosphate (pH 7.4) was incubated at 37° C. At two time points (0 and 120 min), the reaction was stopped by removing an aliquot and combining it with an equal volume of cold acetonitrile containing an internal standard (deuterated elagolix was used as the internal standard for elagolix, and elagolix was used as the internal standard for elagolix-d3 and -d6) and placed on ice. Samples were centrifuged to pellet the protein and the supernatant was frozen at −20° C. for subsequent analysis by LC-MS/MS.
Protein concentrations were constant for all isoforms within each experiment and standardized by the addition of control microsomes. Incubations were performed in duplicate. Incubations with vector control enzyme preparations and without enzyme source were included as negative controls.
All other positive controls were assayed at one concentration in duplicate in accordance with the methods described above. The percent of parent remaining at the end of the incubation was compared to 0 min based on the peak area ratio of the substrate and internal standard.
LC-MS/MS methods for elagolix, elagolix-d3, and elagolix-d6 were developed. The fraction of parent compound remaining compared to 0 min was determined based on peak area ratio (analyte/internal standard).
Elagolix, elagolix-d3, and elagolix-d6 at 1.0 μM and 10 μM were each incubated in the presence of cDNA-expressed CYP1A2, CYP2A6, CYP2B6, CYP2C8, CYP2C9, CYP2C19, CYP2D6, CYP2E1, CYP3A4, and CYP3A5 for 120 minutes. The average percent of parent compound remaining for all isoforms and concentrations was >11% for elagolix, >60% for elagolix-d3, and >26% for elagolix-d6.

T1 sequence (P20815 whole entry): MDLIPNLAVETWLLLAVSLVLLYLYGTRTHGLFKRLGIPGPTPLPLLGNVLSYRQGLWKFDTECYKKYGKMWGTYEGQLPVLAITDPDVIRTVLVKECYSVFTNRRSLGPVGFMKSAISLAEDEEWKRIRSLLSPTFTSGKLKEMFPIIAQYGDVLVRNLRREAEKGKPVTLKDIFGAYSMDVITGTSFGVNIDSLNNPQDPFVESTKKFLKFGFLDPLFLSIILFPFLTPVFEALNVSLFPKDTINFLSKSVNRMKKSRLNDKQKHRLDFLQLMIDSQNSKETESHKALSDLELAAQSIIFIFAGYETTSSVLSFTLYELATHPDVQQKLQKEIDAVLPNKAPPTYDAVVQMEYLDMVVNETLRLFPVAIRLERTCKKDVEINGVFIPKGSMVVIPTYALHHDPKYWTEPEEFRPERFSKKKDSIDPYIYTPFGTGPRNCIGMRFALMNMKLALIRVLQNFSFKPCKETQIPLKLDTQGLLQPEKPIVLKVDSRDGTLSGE

percent parent remaining, cDNA-expressed CYP3A5 [1]	depletion by cDNA-expressed CYP2D6 [2]	average percent of parent compound remaining for all isoforms and concentrations [3]	average amount of parent compound in a CYP enzyme assay after 120 minutes relative to that of elagolix [3]	percent parent remaining, cDNA-expressed CYP2D6 [2]	SMILES
60%	did not demonstrate any depletion	> 60%	more than 400%		[2H]C([2H])([2H])Oc1cccc(-c2c(C)n(Cc3c(F)cccc3C(F)(F)F)c(=O)n(C[C@H](NCCCC(=O)O)c3ccccc3)c2=O)c1F [elagolix-d3, 4-[[(1R)-2-[5-(2-fluoro-3-methoxyphenyl)-3-[[2-fluoro-6(trifluoromethyl)phenyl]methyl]-3,6-dihydro-4-methyl-2,6-dioxo-1(2H)-pyrimidinyl]-1-phenylethyl]amino] butanoic acid-d3]
		> 26%	136%		[2H]C([2H])(N[C@@H](Cn1c(=O)c(-c2cccc(OC)c2F)c(C)n(Cc2c(F)cccc2C(F)(F)F)c1=O)c1ccccc1)C([2H])([2H])C([2H])([2H])C(=O)O [elagolix-d6, 4-[[(1R)-2-[5-(2-fluoro-3-methoxyphenyl)-3-[[2-fluoro-6(trifluoromethyl)phenyl]methyl]-3,6-dihydro-4-methyl-2,6-dioxo-1(2H)-pyrimidinyl]-1-phenylethyl]amino] butanoic acid-d6]
11%		> 11%		62%	COc1cccc(-c2c(C)n(Cc3c(F)cccc3C(F)(F)F)c(=O)n(C[C@H](NCCCC(=O)O)c3ccccc3)c2=O)c1F [elagolix, 4-({(1R)-2-[5-(2-fluoro-3methoxyphenyl)-3-{[2-fluoro-6-(trifluoromethyl)phenyl]methyl}-4-methyl-2,6-dioxo-3,6dihydropyrimidin-1(2H)-yl]-1-phenylethyl}amino)butanoate]
